Laboratory results from patent publication US20250152524A1, “TOPICAL COMPOSITIONS AND METHODS” (VasoDynamics Limited, priority 2022, published 2025).
Where “and” joins values, the source holds several entries; their conditions need not be identical. Equal entries are not always repeated. Structures can show the parent of a compound that is named as a salt. Where two headings read alike, the source gives them in different places.

Tests used:
radiation dermatitis = conditions: cited from earlier work; for relative potencies of the topically applied vasoconstrictors (suppression of radiation dermatitis): 75 μl in ethanol:water (70:30) on 4.5 cm^2 shaved skin 12 min before 17.2 Gy; for potency in comparison to epinephrine: Fahl, 2016
cancerous tissues = conditions: topical application, three xenograft tumour mice models; cited from earlier work
[1] = system: mucositis, dermatitis and alopecia; conditions: topically applied, animal models; cited from earlier work
[2] = for μmols retained in oropharyngeal cavity (A × 0.24): 12.5 ml administered; for Optimum L-Epinephrine Topical Dose (μmols/cm^2): 12.5 ml, surface area 188 cm^2
Experimental: In these experiments, three human volunteer subjects were provided vials containing solution of 5 mM phenylephrine HCl dissolved in our orotopical delivery vehicle, and they were instructed to: • i) deliver the vial contents into their mouths; • ii) ii) swish the liquid in their mouths, pausing to gargle twice for five seconds; and • iii) at the specified time spit out the liquid into a glass vial.
The volume administered and the volume spit out by each test subject were recorded, and HPLC analysis of the phenylephrine concentration in the administered solution and the solutions spit out by each of the three volunteer subjects were determined.

oral mucosa tissue = assay: Lip blanch response after topical application of 1.0 ml to lips (Example 1); type: in vivo, human
[3] = HCl titration of L-epinephrine free base in orotopical delivery vehicle: pH and appearance; type: physicochemical
Experimental: 18 hours later, the clear solution had developed a pink colour (consistent with adrenochrome formation, an oxidative epinephrine metabolite) and flocculant, re-precipitated material had appeared on the surface of the liquid.
An abrupt drop in pH occurred at pH 6.10 in which the turbidity also immediately clarified. Table 2 provides a summary of the pH values from this titration, and indicates the experimentally determined moles of HCl that were required to achieve pH 2.50 in this specific formulation

submucosal blood vessels = system: submucosal blood vessels
Experimental: 2. While stirring, 2-5 N HCl was added to achieve a pH of 2.5.
3. […] The subject swished the 12.5 ml of formulation, gargling twice for 5 seconds each, for 2.0 minutes, and then spit out the formulation.

[4] = Stability of pharmaceutical composition with around 20% wt/vol oxygen (Example 9); type: physicochemical; conditions: 5 mM (0.92 mg/ml)
Experimental: The stability study samples were stored at the stability incubator chambers with various temperature and humidity conditions. At indicated time points, pulled samples were assessed on items such as Appearance, Identification, Colour of solution, Clarity of solutions, pH, Assay, Related Substances, Ethanol and Sodium Metabisulfite content for L-epinephrine solution.

squamous human skin = conditions: 3 mg/ml
[5] = Nutman et al., Crit Care Med 1994; cited from earlier work
[6] = 5 mM × 12.5 ml administered, one line per subject, HCl

For `CNC[C@H](O)c1ccc(O)c(O)c1` [epinephrine], the “relative potencies of the topically applied vasoconstrictors (suppression of radiation dermatitis)” value (from here on “relative potencies”) (radiation dermatitis) is given as 1, the “interference to the curative radiation effect to cancerous tissues” value (shortened to “interference”) (cancerous tissues) is given as “no interference” and the “prevention of mucositis, dermatitis and alopecia induced by radiation” value (from here on “prevention of mucositis”) [1] is given as “successful outcome”.

For `CNC[C@H](O)c1cccc(O)c1` [phenylephrine], the “relative potencies” value (radiation dermatitis) is given as 0.2, the “potency in comparison to epinephrine” value (radiation dermatitis) is given as “one fifth” and the “interference” value (cancerous tissues) is given as “no interference”. For the same compound, the “prevention of mucositis” value [1] was “successful outcome”.

In the case of `NC[C@H](O)c1ccc(O)c(O)c1` [norepinephrine], the “relative potencies” value (radiation dermatitis) is given as 0.5, the “potency in comparison to epinephrine” value (radiation dermatitis) is given as “half” and the “interference” value (cancerous tissues) is given as “no interference”. The “prevention of mucositis” value [1] was “successful outcome”.

With `CNC[C@H](O)c1cccc(O)c1` [PhE-HCl, phenylephrine HCl] the “Spit Out PhE-HCl mg/ml (hplc) × ml B” value ([2]; 5 mM × 12.5 ml (12.8 mg) administered, one line per subject, mean in brackets, HCl) was “(10.59) mg/ml × ml and 9.23, 9.62 (9.42) mg/ml × ml and 8.91, 9.51 (9.21) mg/ml × ml”, the “% of Administered Dose Spit Out B/A × 100” value [2, 6] was 74% and 72% and 83% and the “% of Orotopical PhE-HCl Dose Delivered to Oral Surfaces” value [2, 6] was 26% and 28% and 17%. For the same compound, the “mg PhE-HCl Actually Delivered” value [2, 6] was 3.3 mg and 3.6 mg and 2.2 mg.

With `CNC[C@H](O)c1ccc(O)c(O)c1` [L-epinephrine] the “time to see a robust lip blanch response” value (oral mucosa tissue; solution at pH 2.50, 20 mM, 1.0 ml on lips) was 8 min, the “time to see a discernible lip blanch response” value (oral mucosa tissue; solution at pH 4.95, 1.0 ml on lips) was about 20 min and the appearance of solution ([3]; at pH 2.50) was “clear and colourless”. For the same compound, the appearance of solution ([3]; at pH 4.95) was “clear and colourless”, the appearance of solution ([3]; pH 2.50 solution, 48 hrs later) was “clear and colourless” and the appearance of solution ([3]; pH 4.95 solution, 18 hours later) was “pink colour”. For the same compound, the “share of L-epinephrine dose from the orotopical solution delivered to oral mucosa” value ([2]; 1.8 mg/ml or 3.6 mg/ml administered to mouths of adult humans) was 20-30%, the “μmols retained in oropharyngeal cavity (A × 0.24)” value ([2]; 10 mM (1.8 mg/ml)) was 30 μmols and the “Optimum L-Epinephrine Topical Dose (μmols/cm^2)” value ([2]; 10 mM (1.8 mg/ml)) was 0.160 μmols/cm^2. The “μmols retained in oropharyngeal cavity (A × 0.24)” value ([2]; 20 mM (3.6 mg/ml)) was 60 μmols, the “Optimum L-Epinephrine Topical Dose (μmols/cm^2)” value ([2]; 20 mM (3.6 mg/ml)) was 0.320 μmols/cm^2 and the “lip blanching (photos)” value (submucosal blood vessels; 5.5 mg/ml solution on the lower lip) was “blanching”. For the same compound, the lip blanch response (submucosal blood vessels; 5 minutes after initiation of gargling, 12.5 ml, pH 2.5) was “clear, robust blanch response”, the “time within which robust mucosal blanch was induced” value (submucosal blood vessels; four healthy volunteers, 0.9-5.5 mg/ml) was 5 to 60 min and the single impurity ([4]; 40° C. for 1 month) was about 1.7%. For the same compound, the total impurities ([4]; 40° C. for 1 month) was 3.8%, the “concentration of antioxidant sodium metabisulfite” value ([4]; 60° C. and 40° C.) was “decreasing trend” and the “decrease of concentration of L-epinephrine” value ([4]; 60° C. stress condition) was “about 18%”. For the same compound, the sample colour ([4]; 60° C. stress condition) was “light brown”, the single impurity ([4]; 60° C. stress condition) was “more than 8%” and the total impurities ([4]; 60° C. stress condition) was “more than 17%”. For the same compound, the “duration of blanching after dermal topical application” value (squamous human skin) was “about 40 minutes”, the “2N HCl added to adjust to pH 2.33 (ml/l)” value (L-epi conc 0.92 mg/ml) was 5.36 ml/l and the “pH without addition of L-epi” value (L-epi conc 0.92 mg/ml) was 4.32. The “2N HCl added to adjust to pH 2.33 (ml/l)” value (L-epi conc 5.50 mg/ml) was 11.88 ml/l, the “pH without addition of L-epi” value (L-epi conc 5.50 mg/ml) was 7.10 and the “potency versus racemic +/−epinephrine HCl” value [5] was “twice as potent”.
